According to patent publication US10597388B2, “Pyridazinone herbicides” (FMC CORPORATION, priority 2014, dated 2020):

What was measured:
Format in all cases: in vivo
[1] = test system: wheat (winter wheat, Triticum aestivum); experiment: Test C greenhouse herbicide test, pre- and postemergence
Method in brief: (§1)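 Each species was treated both before emergence, in a loam–sand soil mix, and after emergence, as 1- to 4-leaf seedlings in peat-based potting medium. Plants stayed in the greenhouse 13 to 15 d, then were scored from 0 (no effect) to 100 (complete control) relative to controls.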

[2] = test system: pigweed (Amaranthus retroflexus); experiment: as above
Method in brief: as §1

[3] = test system: blackgrass (Alopecurus myosuroides); experiment: as above
Method in brief: as §1

[4] = test system: morningglory (Ipomoea coccinea); experiment: as above
Method in brief: as §1

[5] = test system: waterhemp (common waterhemp, Amaranthus rudis); experiment: as above
Method in brief: as §1

soybean (Glycine max) = experiment: as above
Method in brief: as §1

[6] = test system: ryegrass, Italian (Italian ryegrass, Lolium multiflorum); experiment: as above
Method in brief: as §1

[7] = test system: ragweed (common ragweed, Ambrosia elatior); experiment: as above
Method in brief: as §1

[8] = test system: lambsquarters (Chenopodium album); experiment: as above
Method in brief: as §1

[9] = test system: nutsedge, yellow (yellow nutsedge, Cyperus esculentus); experiment: as above
Method in brief: as §1

[10] = test system: crabgrass, large (large crabgrass, Digitaria sanguinalis); experiment: as above
Method in brief: as §1

[11] = test system: foxtail, giant (giant foxtail, Setaria faberii); experiment: as above
Method in brief: as §1

[12] = test system: oilseed rape (Brassica napus); experiment: as above
Method in brief: as §1

[13] = test system: johnsongrass (Sorghum halepense); experiment: as above
Method in brief: as §1

corn (Zea mays) = experiment: as above
Method in brief: as §1

kochia (Kochia scoparia) = experiment: Test C greenhouse herbicide test, postemergence; details: for Plant response rating, Kochia: Postemergence
Method in brief: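 Seedlings are raised in pots of peat moss–vermiculite medium with starter nutrients, then receive postemergence test chemical at the 1- to 4-leaf stage. They are kept in the greenhouse 13 to 15 d and scored visually versus controls, 0 meaning no effect and 100 complete control.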

[14] = Postemergence, 125 g ai/ha, scale 0 to 100, 0 is no effect, 100 is complete control
[15] = Postemergence, 250 g ai/ha, scale 0 to 100, 0 no effect, 100 complete control, 13 to 15 d
[16] = Preemergence, 31 g ai/ha, scale 0 to 100, 0 is no effect, 100 is complete control
[17] = Preemergence, 62 g ai/ha, scale 0 to 100, 0 is no effect, 100 is complete control
[18] = Preemergence, 125 g ai/ha, scale 0 to 100, 0 is no effect, 100 is complete control
[19] = Preemergence, 250 g ai/ha, scale 0 to 100 (0 no effect, 100 complete control)
[20] = postemergence, 62 g ai/ha, scale 0 to 100, 0 no effect, 100 complete control
[21] = Postemergence, 31 g ai/ha, 0 to 100 scale (0 no effect, 100 complete control)

C#CCOC(=O)Oc1c(C)nn(C)c(=O)c1-c1c(C)sc2ccc(C)cc12 [Compound 87]
50: Plant response rating, Oilseed Rape [12, 14] | Oilseed Rape plant response rating [12, 20]
10: Blackgrass plant response rating [3, 21] | Plant response rating, Soybean (soybean (Glycine max); [14]) | Plant response rating, Nutsedge, Yellow [9, 16] | Plant response rating, Crabgrass, Large [10, 16] | Crabgrass, Large plant response rating [10, 20] | Plant response rating, Johnsongrass [13, 15] | Plant response rating, Corn (corn (Zea mays); [17]) | Corn plant response rating (corn (Zea mays); [19])
40: Plant response rating, Blackgrass [3, 16] | Plant response rating, Johnsongrass [13, 18] | Johnsongrass plant response rating [13, 19]
65: Plant response rating, Blackgrass [3, 15] | Plant response rating, Crabgrass, Large [10, 17]
98: Plant response rating, Pigweed [2, 15] | Morningglory plant response rating [4, 20] | Plant response rating, Lambsquarters [8, 14] | Lambsquarters plant response rating [8, 20]
55: Plant response rating, Lambsquarters [8, 16] | Foxtail, Giant plant response rating [11, 20]
35: Blackgrass plant response rating [3, 20] | Plant response rating, Ryegrass, Italian [6, 16] | Plant response rating, Nutsedge, Yellow [9, 17] | Plant response rating, Crabgrass, Large [10, 15]
70: Plant response rating, Foxtail, Giant [11, 16]
80: Waterhemp plant response rating [5, 20] | Ryegrass, Italian plant response rating [6, 20] | Plant response rating, Lambsquarters [8, 17] | Plant response rating, Nutsedge, Yellow [9, 14] | Nutsedge, Yellow plant response rating [9, 19] | Nutsedge, Yellow plant response rating [9, 20] | Plant response rating, Crabgrass, Large [10, 18] | Plant response rating, Foxtail, Giant [11, 17] | Oilseed Rape plant response rating [12, 19]
90: Plant response rating, Pigweed [2, 14] | Pigweed plant response rating [2, 20] | Blackgrass plant response rating [3, 19] | Plant response rating, Morningglory [4, 17] | Plant response rating, Waterhemp [5, 14] | Plant response rating, Waterhemp [5, 15] | Plant response rating, Ryegrass, Italian [6, 17] | Plant response rating, Ryegrass, Italian [6, 18] | Ryegrass, Italian plant response rating [6, 19] | Plant response rating, Ragweed [7, 16] | Plant response rating, Ragweed [7, 17] | Ragweed plant response rating [7, 19] | Plant response rating, Foxtail, Giant [11, 18] | Plant response rating, Kochia (kochia (Kochia scoparia); 125 g ai/ha, scale 0 to 100, 0 is no effect, 100 is complete control) | Kochia plant response rating (kochia (Kochia scoparia); [20])
30: Plant response rating, Blackgrass [3, 17] | Plant response rating, Oilseed Rape [12, 16] | Plant response rating, Oilseed Rape [12, 17] | Plant response rating, Corn (corn (Zea mays); [14])
5: Plant response rating, Soybean (soybean (Glycine max); [15]) | Plant response rating, Johnsongrass [13, 14] | Plant response rating, Johnsongrass [13, 16] | Johnsongrass plant response rating [13, 20] | Corn plant response rating (corn (Zea mays); [21]) | Plant response rating, Corn (corn (Zea mays); [15]) | Corn plant response rating (corn (Zea mays); [20])
25: Plant response rating, Crabgrass, Large [10, 14] | Plant response rating, Johnsongrass [13, 17]
100: Plant response rating, Pigweed [2, 17] | Plant response rating, Pigweed [2, 18] | Pigweed plant response rating [2, 19] | Plant response rating, Morningglory [4, 14] | Plant response rating, Morningglory [4, 15] | Plant response rating, Waterhemp [5, 16] | Plant response rating, Waterhemp [5, 17] | Plant response rating, Waterhemp [5, 18] | Waterhemp plant response rating [5, 19] | Plant response rating, Soybean (soybean (Glycine max); [18]) | Plant response rating, Ragweed [7, 15] | Plant response rating, Lambsquarters [8, 15] | Lambsquarters plant response rating [8, 19]
85: Plant response rating, Blackgrass [3, 18] | Plant response rating, Morningglory [4, 16] | Plant response rating, Ryegrass, Italian [6, 14] | Plant response rating, Ryegrass, Italian [6, 15] | Plant response rating, Lambsquarters [8, 18] | Plant response rating, Nutsedge, Yellow [9, 15] | Plant response rating, Nutsedge, Yellow [9, 18] | Crabgrass, Large plant response rating [10, 19] | Plant response rating, Foxtail, Giant [11, 15] | Plant response rating, Oilseed Rape [12, 18]
20: Plant response rating, Oilseed Rape [12, 15]
95: Plant response rating, Morningglory [4, 18] | Morningglory plant response rating [4, 19] | Plant response rating, Ragweed [7, 14] | Plant response rating, Ragweed [7, 18] | Ragweed plant response rating [7, 20] | Foxtail, Giant plant response rating [11, 19] | Plant response rating, Kochia (kochia (Kochia scoparia); 250 g ai/ha, scale 0 to 100, 0 no effect, 100 complete control, 13 to 15 d)
0: Plant response rating, Wheat [1, 14] | Plant response rating, Wheat [1, 15] | Plant response rating, Wheat [1, 16] | Plant response rating, Wheat [1, 17] | Plant response rating, Wheat [1, 18] | Wheat plant response rating [1, 19] | Wheat plant response rating [1, 20] | Plant response rating, Soybean (soybean (Glycine max); [16]) | Plant response rating, Soybean (soybean (Glycine max); [17]) | Soybean plant response rating (soybean (Glycine max); [19]) | Soybean plant response rating (soybean (Glycine max); [20]) | Plant response rating, Corn (corn (Zea mays); [16]) | Plant response rating, Corn (corn (Zea mays); [18])
75: Plant response rating, Pigweed [2, 16] | Plant response rating, Foxtail, Giant [11, 14]
60: Plant response rating, Blackgrass [3, 14]
